Measurements taken from PMC7772889, “Integrating biokinetics and in vitro studies to evaluate developmental neurotoxicity induced by chlorpyrifos in human iPSC-derived neural stem cells undergoing differentiation towards neuronal and glial cells” (Reproductive Toxicology (Elmsford, N.y.), 2020).

Key:
Adsorption to plastic = type: in vitro ADME
Procedure: Since CPF is a lipophilic chemical, its potential adsorption to the plastic wells was evaluated during the kinetic experiments. At the end of each experiment, the content (cells and medium) of each sample well was removed. Wells were washed twice with PBS, to remove possible cellular debris and 3 mL methanol (MeOH) were added. The plate was sealed with Parafilm and kept under gentle shaking at room temperature for 2h, before transferring the complete volume into amber glass vials with screw caps. The fractions were stored at −80 °C until HPLC analysis.

[1] = system: hiPSC-derived NSCs undergoing differentiation towards neurons and astrocytes; experiment: In vitro biokinetics of CPF and metabolites in medium, cells and plastic (HPLC-UV)
Procedure: The nominal concentration causing 5 % decrease of viability (IC5) was previously identified, extrapolating a dose response curves obtained with six CPF nominal concentrations (0.49, 1.95, 7.81, 31.25, 125, and 500 μM) vs solvent control (0.1 % DMSO) after 14-day treatment by means of resazurin test (CellTiter-Blue® Reagent).
CPF stock solutions were prepared in DMSO and stored in glass at −20 °C until the beginning of each experiment. Freshly prepared treatment solutions were obtained after the dilution of stock solutions in a ratio of […] in serum-free culture medium, keeping DMSO concentration at 0.1 %. Aliquots of the stock and daily treatment solutions (considered as the starting solutions) were stored at −80 °C until HPLC analysis.
Cells (about 21,000 cells/cm^2), seeded on 6 well PDL- and reduced growth factor Matrigel coated plates, were treated during the differentiation process, starting from day 7 of differentiation up to day 21, with treatment/medium refreshed twice a week (Fig. 2). Exposure to CPF of cells or pre-coated wells (without cells) was initiated by adding 2 mL per well of the corresponding treatment solutions or the vehicle (control wells). Four biological replicates were carried out.
A first set of experiments was used to fine tune the experimental conditions, including time points and exposure conditions, taking into account possible metabolism, bioaccumulation and/or physical sequestration processes. All the fractions (i.e., medium, cells, plastic and matrix-bound fractions) were collected, at the first and last day of treatment, at different time points (i.e., 1, 3, 6, 24 h) selected on the basis of the intrinsic features of the compound and the cellular model. At each time point, the medium was transferred into amber glass vials and stored at −80 °C until HPLC analysis. Cells were washed twice with PBS (2 mL/well); to avoid dehydration of the cells, an aliquot of PBS was kept in each well. PBS was then removed, cells were scraped from the wells in 250 μL MeOH, additional 100 μL MeOH were added for washing and all the content was transferred into amber glass vials. The same procedure was applied also to the wells used for measuring matrix-bound material (without cells). Cells were then sonicated until they were fully homogenized (about 15 min). All fractions, including DMSO from control wells and MeOH used to measure possible plastic binding, were stored at −80 °C until HPLC analysis. Four biological replicates were carried out.
All samples from kinetic experiments were analysed using high-performance liquid chromatography (HPLC), as previously described, to quantify CPF and its metabolites. Prior to analysis, one volume of the collected medium samples was mixed with three volumes of MeOH. All the mixtures, including cell and matrix-bound samples, were vortexed for 30 s and then centrifuged (Eppendorf 5417R; 4 °C, 2500 rpm) for 10 min. Preliminary assays were conducted to evaluate CPF and its metabolite recovery after the solvent extraction procedure from each type of sample. […] Plastic-bound fraction was injected as such.
The HPLC system included a PerkinElmer Series 200 analytical pump, a Restek™ Pinnacle ODS Amine C18 column, a PerkinElmer LC 235 Diode Array Detector and the PerkinElmer Totalchrom™ 3.1.2 software for data acquisition and evaluation. For analysing CPF, CPFO and TCP, a gradient elution was applied at a flow rate of 1.0 mL/min, starting at 80:20 % methanol /buffer (Tris /HCl 50 mM EDTA 1 mM pH 7.4) and reaching after 4 min a percentage of 70:30 (v/v), respectively, maintained for 16 min. Then, the gradient returned to the initial concentration before the next sample was injected.

[2] = system: hiPSC-derived NSCs undergoing differentiation; experiment: Proportion of neurons (β-III-Tubulin+) and astrocytes (GFAP+) by immunocytochemistry and HCI; type: cell-based, human; details: 14 days
Procedure: After 14 days of treatment with CPF at the nominal concentrations of 18.45, 21.21, 24.39, 28.05, 32.26, and 37.10 μM (37.10 μM equal to IC20), obtained considering a 1-to-1.15 dilution factor, cells were fixed with 4 % formaldehyde for 10 min and washed three times in PBS 1 × . After 15 min permeabilization with PBS 1X containing 0.1 % Triton-X-100 and 3,5 % bovine serum albumin (BSA), cells were further incubated with 3,5 % BSA and 1X PBS (blocking solution) for 15 min, to prevent nonspecific binding of antibodies, and then incubated at 4 °C overnight with primary antibodies in blocking solution. […] Neurite outgrowth and BDNF protein levels were assessed by staining the cells with an antibody specific for β-III-tubulin (mouse, 1:500, ThermoFisher), and one for BDNF (rabbit, 1:70, ThermoFisher). […] Mean fluorescence intensity and the relative percentages of immunocytochemically-defined cell types were quantified using the ArrayScan™ XTI High Content Platform (Cellomics) (ThermoFisher) and the ArrayScan algorithm 'Neuronal Profiling V4.1', as previously described. […] Other masks were applied to identify the neurites, their branch points, and the fluorescence intensity levels of SYP and PSD95 puncta, or BDNF protein. […]

[3] = system: hiPSC-derived NSCs undergoing differentiation; parameters: method as in PMID 32093744; details: 14-day treatment; cited from earlier work
[4] = cited from earlier work

What does the source list for `CCOP(=S)(OCC)Oc1nc(Cl)c(Cl)cc1Cl` [CPF, Chlorpyrifos]?
Bound-to-plastic fraction (Adsorption to plastic; first day of treatment): 0−8.4%; Bound-to-plastic fraction (Adsorption to plastic; last day of treatment): 7.5−16.5%; Intracellular levels of CPF ([1]; first day of treatment, 1 h until 24 h, 21 μM nominal): 2.5–4.7 nmol/well; CPF in the medium as % of the initial CPF amount ([1]; first day of treatment, 24 h): around 41%; CPF in the medium ([1]; first day of treatment, 24 h, 21 μM nominal): 18.0 ± 6.9 nmol/well; Mass balance (% of the applied CPF amount) ([1]; first day of treatment, first three time points (1, 3 and 6 h)): around 95%; Actual concentration in the medium at the beginning of the experiment (treatment solution) ([1]; nominal concentration 21 μM (IC5)): 24.5 ± 5.6 µM; Amount of CPF in the cell compartment, last day compared to first day of treatment ([1]; p < 0.01): doubled; Mass balance ([1]; repeated exposure, within the first 6 h): 110 to 120%; increase of neuronal cell percentage (β-III-Tubulin+) ([2]; all tested concentrations): 10–15%; increase of GFAP+ cell percentage vs solvent control ([2]; concentration dependent): 2- to 2.8 fold; in vitro nominal LOAEC for synaptogenesis [3]: 21 µM; vapour pressure ([4]; at 25 °C): 2.02 × 10^−5 mm Hg; log Kow, octanol/water partition coefficient [4]: 4.96
